Numbering of substitutions follows the chain as printed.
How the values were obtained:
[1] = molecular target: T1, ETR1 (Arabidopsis thaliana, UniProt P49333, K91R); experiment: saturable […]ethylene radioligand binding to yeast expressing the mutant
T1 sequence (P49333 1-738 K91R): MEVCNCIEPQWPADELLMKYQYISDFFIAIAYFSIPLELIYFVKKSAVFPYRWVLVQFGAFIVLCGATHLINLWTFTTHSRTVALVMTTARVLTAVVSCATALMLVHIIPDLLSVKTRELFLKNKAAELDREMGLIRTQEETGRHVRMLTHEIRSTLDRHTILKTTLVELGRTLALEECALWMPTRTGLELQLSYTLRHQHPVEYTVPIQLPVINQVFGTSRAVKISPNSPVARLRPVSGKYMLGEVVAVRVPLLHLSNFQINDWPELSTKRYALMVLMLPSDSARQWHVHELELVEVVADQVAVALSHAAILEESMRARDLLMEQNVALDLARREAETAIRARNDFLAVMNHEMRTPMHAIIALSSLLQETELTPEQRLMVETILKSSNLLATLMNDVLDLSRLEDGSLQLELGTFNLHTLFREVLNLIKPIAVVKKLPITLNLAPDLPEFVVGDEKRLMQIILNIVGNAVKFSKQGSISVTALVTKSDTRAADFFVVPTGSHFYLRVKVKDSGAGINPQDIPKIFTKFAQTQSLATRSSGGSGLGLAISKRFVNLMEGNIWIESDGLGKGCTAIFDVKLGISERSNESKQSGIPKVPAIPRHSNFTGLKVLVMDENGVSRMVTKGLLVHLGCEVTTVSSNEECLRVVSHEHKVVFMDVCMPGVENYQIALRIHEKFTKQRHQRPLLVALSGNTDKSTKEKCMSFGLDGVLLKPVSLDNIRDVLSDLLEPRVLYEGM

[2] = molecular target: T2, ETR1 (Arabidopsis thaliana, UniProt P49333, K91M); experiment: as above
T2 sequence (P49333 1-738 K91M): T1 sequence (P49333 1-738 K91R) with R91M

% of wildtype binding [1]: 63 % of wildtype binding
% of wildtype binding [2]: ~ 6 % of wildtype binding
Structure (SMILES): C=C [ethylene]
